Source: ChEMBL document CHEMBL3352636, “Rational design, synthesis and anti-proliferative evaluation of novel benzosuberone tethered with hydrazide-hydrazones” (2014)

How the values were obtained:
Type in all cases: functional
[1] = Growth inhibition of human IMR32 cells after 48 hrs by SRB assay; details: IMR-32, 48 h
[2] = tested on: HeLa; assay: Growth inhibition of human HeLa cells after 48 hrs by SRB assay
[3] = Growth inhibition of human MiaPaCa cells after 48 hrs by SRB assay; details: MIA PaCa-2, 48 h
[4] = tested on: MDA-MB-231; assay: Growth inhibition of human MDA-MB-231 cells after 48 hrs by SRB assay; details: MDA-MB-231, 48 h

Structure (SMILES) | GI50 [1] [µM] | GI50 [2] [µM] | GI50 [3] [µM] | GI50 [4] [µM]
Cc1cc2c(cc1C)C(Cl)=C(C(=O)N/N=C\c1ccc(F)cc1)CCC2 | 3.5 | 2.2 | 0.36 | 0.84
Cc1cc2c(cc1C)C(Cl)=C(/C=N/NC(=O)c1cccc(I)c1)CCC2 | 1.9 | > 100 | 4.3 | 1.2
O=C(N/N=C/C1=C(Cl)c2ccccc2CCC1)c1cccnc1 | 0.15 | 7.5 | 11.7 | 91.7
O=C(N/N=C/C1=C(Cl)c2ccccc2CCC1)c1ccccc1 | 16.1 | > 100 | 1 | 11.1
Cc1cc2c(cc1C)C(Cl)=C(/C=N\NC(=O)C1=C(Cl)c3cc(C)c(C)cc3CCC1)CCC2 | 59.9 | > 100 | 6 | 78.2
O=C(N/N=C/C1=C(Cl)c2ccccc2CCC1)c1cccc(I)c1 | 7.6 | 6.3 | 1.6 | 55.2
COc1cc(/C=N\NC(=O)C2=C(Cl)c3cc(C)c(C)cc3CCC2)cc(OC)c1OC | 4.1 | 21 | 5.8 | 1.2
Cc1cc2c(cc1C)C(Cl)=C(C(=O)N/N=C\c1ccc(Cl)cc1)CCC2 | 18.3 | 1.6 | 0.44 | 0.41
Cc1cc2c(cc1C)C(Cl)=C(/C=N\NC(=O)C1=C(Cl)c3ccccc3CCC1)CCC2 | 0.67 | 4.5 | 0.21 | 3.1
O=C(N/N=C/C1=C(Cl)c2ccccc2CCC1)c1cccc(C(F)(F)F)c1 | 2 | 16.3 | 5.8 | 94.3
Cc1ccc(C(=O)N/N=C/C2=C(Cl)c3cc(C)c(C)cc3CCC2)cc1 | 0.1 | > 100 | 28.8 | 32.9
Cc1cc2c(cc1C)C(Cl)=C(C(=O)N/N=C\C1=C(Cl)c3ccccc3CCC1)CCC2 | 2.4 | > 100 | 6 | 7.7
Cc1cc2c(cc1C)C(Cl)=C(/C=N/NC(=O)c1cccnc1)CCC2 | 8.4 | 0.65 | 1.6 | 5.4
Cc1cc2c(cc1C)C(Cl)=C(/C=N/NC(=O)c1cccc(Cl)c1)CCC2 | > 100 | 0.77 | 33.6 | 1.93
COc1ccc(/C=N\NC(=O)C2=C(Cl)c3ccccc3CCC2)c(OC)c1 | 14.9 | 38.5 | 2.7 | 0.29
COc1cccc2c1C(=O)c1c(O)c3c(c(O)c1C2=O)C[C@@](O)(C(=O)CO)C[C@@H]3O[C@H]1C[C@H](N)[C@H](O)[C@H](C)O1 [DOXORUBICIN] | 0.023 | 0.073 | 0.097 | 0.085
Cc1cc2c(cc1C)C(Cl)=C(/C=N/NC(=O)c1ccccc1N)CCC2 | 36.3 | > 100 | 0.81 | 3.7
Cc1ccc(C(=O)N/N=C/C2=C(Cl)c3ccccc3CCC2)cc1 | 0.3 | 0.3 | 10 | 0.71
Nc1ccccc1C(=O)N/N=C/C1=C(Cl)c2ccccc2CCC1 | 51 | > 100 | 65.1 | 5

Structure (SMILES) | GI50 [1] [µM] | GI50 [2] [µM] | GI50 [3] [µM] | GI50 [4] [µM]
COc1cc(C(=O)N/N=C/C2=C(Cl)c3cc(C)c(C)cc3CCC2)c([N+](=O)[O-])cc1OC | 13.8 | 2 | 1.6 | 0.22
O=C(N/N=C/C1=C(Cl)c2ccccc2CCC1)c1ccc([N+](=O)[O-])cc1 | 26 | > 100 | 2.3 | 3.8
O=C(N/N=C/C1=C(Cl)c2ccccc2CCC1)c1cccc(Cl)c1 | 27.3 | 19.2 | 78.4 | 16.3
O=C(N/N=C\c1ccc(F)cc1)C1=C(Cl)c2ccccc2CCC1 | 0.27 | 1.3 | < 0.01 | 0.41
COc1cc(/C=N\NC(=O)C2=C(Cl)c3ccccc3CCC2)cc(OC)c1OC | < 0.01 | 8.2 | 1.4 | < 0.01
Cc1cc2c(cc1C)C(Cl)=C(/C=N/NC(=O)c1cccc3ccccc13)CCC2 | 3.9 | 1 | 4.6 | 0.71
COc1cccc(C(=O)N/N=C/C2=C(Cl)c3ccccc3CCC2)c1C | 26.5 | 9.2 | 0.7 | 0.29
COc1cc(C(=O)N/N=C/C2=C(Cl)c3ccccc3CCC2)c([N+](=O)[O-])cc1OC | 2.7 | 1.1 | 10.9 | > 100
COc1cc(C(=O)N/N=C/C2=C(Cl)c3cc(C)c(C)cc3CCC2)cc(OC)c1OC | 20.9 | 0.76 | 2.3 | 0.46
CC(=O)O[C@H]1C(=O)[C@@]2(C)[C@H]([C@H](OC(=O)c3ccccc3)[C@]3(O)C[C@H](OC(=O)[C@H](O)[C@@H](NC(=O)c4ccccc4)c4ccccc4)C(C)=C1C3(C)C)[C@]1(OC(C)=O)CO[C@@H]1C[C@@H]2O [PACLITAXEL] | 0.075 | 0.025 | 0.056 | 0.091
Cc1cc2c(cc1C)C(Cl)=C(/C=N/NC(=O)c1cccc(C(F)(F)F)c1)CCC2 | 7.8 | 6.8 | 12.2 | < 0.01
COc1cc(C(=O)N/N=C/C2=C(Cl)c3ccccc3CCC2)cc(OC)c1OC | 75.6 | 0.77 | 69.3 | 30
O=C(N/N=C\c1ccc(Cl)cc1)C1=C(Cl)c2ccccc2CCC1 | 0.14 | 2.3 | < 0.01 | 0.26
Cc1cc2c(cc1C)C(Cl)=C(/C=N/NC(=O)c1ccccc1)CCC2 | 1.8 | > 100 | > 100 | 2.5
COc1cccc(/C=N\NC(=O)C2=C(Cl)c3ccccc3CCC2)c1 | < 0.01 | 15.6 | < 0.01 | 0.3
COc1cccc(C(=O)N/N=C/C2=C(Cl)c3cc(C)c(C)cc3CCC2)c1C | 0.17 | 0.3 | 2 | 10
O=C(N/N=C\C1=C(Cl)c2ccccc2CCC1)C1=C(Cl)c2ccccc2CCC1 | 2.2 | 1 | 1.6 | 3
Cc1ccc(/C=N\NC(=O)C2=C(Cl)c3ccccc3CCC2)cc1 | 0.14 | 2.3 | < 0.01 | 0.26
O=C(N/N=C/C1=C(Cl)c2ccccc2CCC1)c1cccc2ccccc12 | 9.2 | 4.7 | 13.6 | 12.1
